US20070117743A1, “New antitumoral compounds” (priority 2003, published 2007)
Read-outs that look alike come from different tables or passages of the source.

Experiments:
Type in all cases: cell-based, human
[1] = test system: SK-MEL-28; test: SRB colorimetric assay of cell growth and viability, SK-MEL-28; details: 48 hours exposure; for CC50: read-out: LC50 MEL-28
[2] = test system: HeLa-APL; test: SRB colorimetric assay of cell growth and viability, HeLa-APL; details: 48 hours exposure; for CC50: read-out: LC50 HELA-APL
[3] = test system: K-562; test: SRB colorimetric assay of cell growth and viability, K-562; details: 48 hours exposure; for CC50: read-out: LC50 K-562
[4] = test system: LoVo-Dox; test: SRB colorimetric assay of cell growth and viability, LoVo-Dox; details: 48 hours exposure; for CC50: read-out: LC50 LOVO-DOX
How it was run: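 Tumor cells are continuously exposed to sample for 48 hours, with vehicle DMSO:EtOH:PBS (0.5:0.5:99), after an 18-hour drug-free attachment period. Bound SRB, measured at 490 nm, reflects cell mass; GI, TGI and LC are derived from triplicate means.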

[5] = test system: DU-145; test: SRB colorimetric assay of cell growth and viability, DU-145; details: 48 hours exposure
[6] = test system: HeLa; test: SRB colorimetric assay of cell growth and viability, HeLa; details: 48 hours exposure; for CC50: read-out: LC50 HELA
[7] = test system: PANC-1; test: SRB colorimetric assay of cell growth and viability, PANC-1; details: 48 hours exposure; for CC50: read-out: LC50 PANC-1
[8] = test system: IGROV-1; test: SRB colorimetric assay of cell growth and viability, IGROV-1; details: 48 hours exposure
[9] = test system: HT-29; test: SRB colorimetric assay of cell growth and viability, HT-29; details: 48 hours exposure; for GI50: read-out: GI50 HT-29; for CC50: read-out: LC50 HT-29
[10] = test system: LoVo; test: SRB colorimetric assay of cell growth and viability, LoVo; details: 48 hours exposure; for CC50: read-out: LC50 LOVO
[11] = test system: LNCaP; test: SRB colorimetric assay of cell growth and viability, LNCaP; details: 48 hours exposure; for GI50: read-out: GI50 LN-caP; for CC50: read-out: LC50 LN-caP
[12] = test system: SK-BR-3; test: SRB colorimetric assay of cell growth and viability, SK-BR-3; details: 48 hours exposure
[13] = test system: IGROV-ET; test: SRB colorimetric assay of cell growth and viability, IGROV-ET; details: 48 hours exposure; for CC50: read-out: LC50 IGROV-ET
[14] = test system: A-549; test: SRB colorimetric assay of cell growth and viability, A-549; details: 48 hours exposure; for GI50: read-out: GI50 A-549; for CC50: read-out: LC50 A-549

C/C=C1\NC(=O)[C@@H](Cc2ccccc2)NC(=O)[C@H](C(C)C)NC(=O)[C@H]([C@H](C)CC)NC(=O)[C@@H](NC(=O)[C@@H](NC(=O)[C@@H](CCCN)NC(=O)[C@@H]2CCCN2C(=O)[C@@H](NC(=O)[C@H](NC(=O)[C@H](NC(=O)[C@@H](NC(=O)CCCC(C)C)C(C)C)[C@H](C)O)C(C)C)C(C)C)[C@H](C)CC)[C@H](C)OC(=O)[C@@H](C(C)C)NC1=O [Compound 69, [D-Val^1, D-Phe^3, Val^4, alo-Ile^5, alo-Thr^6, alo-Ile^7, D-Orn^8, Pro^9, Val^10, D-Val^11, D-Thr^12, Val^13] KF]
GI50 ([1]; SRB): ≥ 6770 nM | TGI MEL-28 ([1]; SRB): 6.77E−06 Molar | CC50 ([1]; SRB): ≥ 6770 nM | GI50 ([2]; SRB): ≥ 6770 nM | TGI HELA-APL ([2]; SRB): 6.77E−06 Molar | CC50 ([2]; SRB): ≥ 6770 nM | GI50 ([3]; SRB): ≥ 6770 nM | TGI K-562 ([3]; SRB): 6.77E−06 Molar | CC50 ([3]; SRB): ≥ 6770 nM | GI50 ([4]; SRB): ≥ 6770 nM | TGI LOVO-DOX ([4]; SRB): 6.77E−06 Molar | CC50 ([4]; SRB): ≥ 6770 nM | GI50 ([5]; SRB): ≥ 6770 nM | LC50 (concentration causing 50% net cell kill) ([5]; SRB): ≥ 6770 nM | TGI DU-145 ([5]; SRB): 6.77E−06 Molar | GI50 ([6]; SRB): ≥ 6770 nM | TGI HELA ([6]; SRB): 6.77E−06 Molar | CC50 ([6]; SRB): ≥ 6770 nM | GI50 ([7]; SRB): ≥ 6770 nM | TGI PANC-1 ([7]; SRB): 6.77E−06 Molar | CC50 ([7]; SRB): ≥ 6770 nM | GI50 ([8]; SRB): 4370 nM | LC50 (concentration causing 50% net cell killing) ([8]; SRB): ≥ 6770 nM | TGI IGROV ([8]; SRB): 6.77E−06 Molar | TGI HT-29 ([9]; SRB): 6.77E−06 Molar | GI50 ([9]; SRB): ≥ 6770 nM | CC50 ([9]; SRB): ≥ 6770 nM | GI50 ([10]; SRB): ≥ 6770 nM | TGI LOVO ([10]; SRB): 6.77E−06 Molar | CC50 ([10]; SRB): ≥ 6770 nM | TGI LN-caP ([11]; SRB): 6.77E−06 Molar | GI50 ([11]; SRB): 2350 nM | CC50 ([11]; SRB): ≥ 6770 nM | GI50 ([12]; SRB): 6720 nM | LC50 ([12]; SRB): ≥ 6770 nM | TGI SK-BR-3 ([12]; SRB): 6.77E−06 Molar | GI50 ([13]; SRB): ≥ 6770 nM | TGI IGROV-ET ([13]; SRB): 6.77E−06 Molar | CC50 ([13]; SRB): ≥ 6770 nM | TGI A-549 ([14]; SRB): 6.77E−06 Molar | GI50 ([14]; SRB): ≥ 6770 nM | CC50 ([14]; SRB): ≥ 6770 nM

C/C=C1\NC(=O)[C@H](Cc2ccccc2)NC(=O)[C@@H](C(C)C)NC(=O)[C@@H]([C@@H](C)CC)NC(=O)[C@H](NC(=O)[C@H](NC(=O)[C@H](CCCN)NC(=O)[C@H]2CCCN2C(=O)[C@H](NC(=O)[C@@H](NC(=O)[C@@H](NC(=O)[C@H](NC(=O)CCCCCCCCCC)C(C)C)[C@@H](C)O)C(C)C)C(C)C)[C@@H](C)CC)[C@@H](C)OC(=O)[C@H](C(C)C)NC1=O [Compound 15, [Und^14]-KF]
GI50 [1]: 169 nM | TGI MEL-28 [1]: 4.45E−07 Molar | CC50 [1]: 2040 nM | GI50 [2]: 229 nM | TGI HELA-APL [2]: 8.47E−07 Molar | CC50 [2]: 3550 nM | GI50 [3]: 1150 nM | TGI K-562 [3]: 2.18E−06 Molar | CC50 [3]: 4100 nM | GI50 [4]: 40.8 nM | TGI LOVO-DOX [4]: 1.65E−07 Molar | CC50 [4]: 478 nM | GI50 [5]: 162 nM | LC50 (concentration causing 50% net cell kill) [5]: 1040 nM | TGI DU-145 [5]: 3.53E−07 Molar | GI50 [6]: 120 nM | TGI HELA [6]: 2.65E−07 Molar | CC50 [6]: 588 nM | GI50 [7]: 1230 nM | TGI PANC-1 [7]: 2.28E−06 Molar | CC50 [7]: 4200 nM | GI50 [8]: 158 nM | LC50 (concentration causing 50% net cell killing) [8]: 1540 nM | TGI IGROV [8]: 3.72E−07 Molar | TGI HT-29 [9]: 2.70E−07 Molar | GI50 [9]: 127 nM | CC50 [9]: 574 nM | GI50 [10]: 117 nM | TGI LOVO [10]: 2.67E−07 Molar | CC50 [10]: 604 nM | TGI LN-caP [11]: 1.44E−06 Molar | GI50 [11]: 529 nM | CC50 [11]: 3480 nM | GI50 [12]: 26.7 nM | LC50 [12]: 468 nM | TGI SK-BR-3 [12]: 7.43E−08 Molar | GI50 [13]: 235 nM | TGI IGROV-ET [13]: 8.41E−07 Molar | CC50 [13]: 3340 nM | TGI A-549 [14]: 3.39E−07 Molar | GI50 [14]: 143 nM | CC50 [14]: 1690 nM

C/C=C1\NC(=O)[C@H](Cc2ccccc2)NC(=O)[C@@H](C(C)C)NC(=O)[C@@H]([C@@H](C)CC)NC(=O)[C@H](NC(=O)[C@H](NC(=O)[C@H](CCCCN)NC(=O)[C@H]2CCCN2C(=O)[C@H](NC(=O)[C@@H](NC(=O)[C@@H](NC(=O)[C@H](NC(=O)CC[C@@H](C)CC)C(C)C)[C@@H](C)O)C(C)C)C(C)C)[C@@H](C)CC)[C@@H](C)OC(=O)[C@H](C(C)C)NC1=O [Compound 30, [Lys^8, (4S)-MeHex^14]-KF]
GI50 [1]: 1190 nM | TGI MEL-28 [1]: 2.39E−06 Molar | CC50 [1]: 4780 nM | GI50 [2]: 677 nM | TGI HELA-APL [2]: 1.76E−06 Molar | CC50 [2]: 4580 nM | GI50 [3]: 1020 nM | TGI K-562 [3]: 2.28E−06 Molar | CC50 [3]: 5070 nM | GI50 [4]: 164 nM | TGI LOVO-DOX [4]: 3.24E−07 Molar | CC50 [4]: 639 nM | GI50 [5]: 329 nM | LC50 (concentration causing 50% net cell kill) [5]: 4200 nM | TGI DU-145 [5]: 1.15E−06 Molar | GI50 [6]: 212 nM | TGI HELA [6]: 5.42E−07 Molar | CC50 [6]: 2470 nM | GI50 [7]: 2170 nM | TGI PANC-1 [7]: 5.28E−06 Molar | CC50 [7]: 6700 nM | GI50 [8]: 205 nM | LC50 (concentration causing 50% net cell killing) [8]: 1090 nM | TGI IGROV [8]: 3.87E−07 Molar | TGI HT-29 [9]: 2.99E−07 Molar | GI50 [9]: 173 nM | CC50 [9]: 517 nM | GI50 [10]: 135 nM | TGI LOVO [10]: 2.45E−07 Molar | CC50 [10]: 444 nM | TGI LN-caP [11]: 1.72E−06 Molar | GI50 [11]: 804 nM | CC50 [11]: 3680 nM | GI50 [12]: 159 nM | LC50 [12]: 579 nM | TGI SK-BR-3 [12]: 3.04E−07 Molar | GI50 [13]: 192 nM | TGI IGROV-ET [13]: 3.50E−07 Molar | CC50 [13]: 637 nM | TGI A-549 [14]: 2.24E−06 Molar | GI50 [14]: 1040 nM | CC50 [14]: 4810 nM

[(c/t)-4-Me-cHexa^14]-KF [Compound 14]
GI50 [1]: 886 nM | TGI MEL-28 [1]: 1.89E−06 Molar | CC50 [1]: 4010 nM | GI50 [2]: 611 nM | TGI HELA-APL [2]: 1.72E−06 Molar | CC50 [2]: 4560 nM | GI50 [3]: 2020 nM | TGI K-562 [3]: 3.58E−06 Molar | CC50 [3]: 6320 nM | GI50 [4]: 144 nM | TGI LOVO-DOX [4]: 2.88E−07 Molar | CC50 [4]: 576 nM | GI50 [5]: 612 nM | LC50 (concentration causing 50% net cell kill) [5]: 3360 nM | TGI DU-145 [5]: 1.48E−06 Molar | GI50 [6]: 779 nM | TGI HELA [6]: 1.84E−06 Molar | CC50 [6]: 4370 nM | GI50 [7]: 2010 nM | TGI PANC-1 [7]: 6.71E−06 Molar | CC50 [7]: 6710 nM | GI50 [8]: 382 nM | LC50 (concentration causing 50% net cell killing) [8]: 3470 nM | TGI IGROV [8]: 1.22E−06 Molar | TGI HT-29 [9]: 4.22E−07 Molar | GI50 [9]: 189 nM | CC50 [9]: 1830 nM | GI50 [10]: 99.3 nM | TGI LOVO [10]: 2.34E−07 Molar | CC50 [10]: 550 nM | TGI LN-caP [11]: 2.87E−06 Molar | GI50 [11]: 1340 nM | CC50 [11]: 6110 nM | GI50 [12]: 152 nM | LC50 [12]: 657 nM | TGI SK-BR-3 [12]: 3.17E−07 Molar | GI50 [13]: 846 nM | TGI IGROV-ET [13]: 1.94E−06 Molar | CC50 [13]: 4470 nM | TGI A-549 [14]: 2.15E−06 Molar | GI50 [14]: 933 nM | CC50 [14]: 4950 nM
